Assay results reported in patent publication US20250197372A1 (priority 2020, published 2025).

Tests used:
[1] = molecular target: T1, recombinant alpha-glucosidase I (human full-length glucosidase I, Glu 1) (Homo sapiens, UniProt Q13724); test: Alpha-glucosidase I assay (Amplex Red glucose detection, synthetic trisaccharide substrate); type: biochemical; conditions: Glucosidase 1; read-out: Glu 1 IC50
T1 construct: 6-His (C); made in house; host or cells: HEK-293T cells transduced with BacMam virus (virus raised in Sf9)
T1 sequence (Q13724 1-837): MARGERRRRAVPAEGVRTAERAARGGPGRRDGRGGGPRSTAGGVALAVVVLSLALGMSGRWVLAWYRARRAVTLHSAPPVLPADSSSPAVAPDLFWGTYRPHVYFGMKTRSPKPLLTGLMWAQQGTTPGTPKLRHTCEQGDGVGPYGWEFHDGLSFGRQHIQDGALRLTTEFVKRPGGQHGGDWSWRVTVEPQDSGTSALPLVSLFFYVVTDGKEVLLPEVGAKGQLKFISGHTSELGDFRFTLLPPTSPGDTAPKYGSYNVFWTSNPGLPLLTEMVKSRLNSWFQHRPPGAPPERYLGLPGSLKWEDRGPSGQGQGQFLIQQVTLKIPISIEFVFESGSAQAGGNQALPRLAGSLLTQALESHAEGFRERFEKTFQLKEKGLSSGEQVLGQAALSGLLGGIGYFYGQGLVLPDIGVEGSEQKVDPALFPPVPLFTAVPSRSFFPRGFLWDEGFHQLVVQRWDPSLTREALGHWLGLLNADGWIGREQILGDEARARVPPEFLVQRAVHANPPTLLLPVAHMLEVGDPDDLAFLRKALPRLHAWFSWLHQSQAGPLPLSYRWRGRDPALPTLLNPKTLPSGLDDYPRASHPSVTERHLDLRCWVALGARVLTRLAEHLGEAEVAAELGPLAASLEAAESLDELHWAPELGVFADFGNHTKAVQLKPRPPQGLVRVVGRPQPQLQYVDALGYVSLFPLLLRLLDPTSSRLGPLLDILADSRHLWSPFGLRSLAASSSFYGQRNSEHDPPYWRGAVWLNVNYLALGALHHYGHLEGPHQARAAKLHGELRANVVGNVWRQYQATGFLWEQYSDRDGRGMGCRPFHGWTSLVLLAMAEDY
Outline: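 Human full-length glucosidase I, His-tagged, […] and Ni-purified. Enzyme preincubated with compound dilutions 60 min at 37° C, then synthetic trisaccharide substrate 90 min at 37° C; stopped with 1.5M Tris pH 8.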

[2] = molecular target: rat maltase (partially purified alpha-glucosidase from intestinal rat powder); test: Intestinal alpha-glucosidase assay, maltose substrate (Glucose GO Kit); type: biochemical
Outline: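 Glucose release is the read-out: compounds at multiple dilutions are first held with partially purified rat intestinal alpha-glucosidase for 60 min at 37 °C, after which maltose or sucrose substrate reacts for 30 min at 37 °C before a 5 min 90 °C stop. IC50 comes from a four-parameter logistic fit.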

Structure (SMILES) | IC50 [1] | IC50 [2]
Cc1cc(NCc2ccc(CN3C[C@H](O)[C@@H](O)[C@H](O)[C@H]3CO)cc2)cc(-c2ncco2)c1 [Compound 1315, (2R,3R,4R,5S)-2-(hydroxymethyl)-1-{[4-({[3-methyl-5-(1,3-oxazol-2-yl)phenyl]amino}methyl)phenyl]methyl}piperidine-3,4,5-triol] | 40 nM | 9 nM
COc1ccc(C#CCCCCCN2C[C@H](O)[C@@H](O)[C@H](O)[C@H]2CO)cc1 [Compound 1338, (2R,3R,4R,5S)-2-(hydroxymethyl)-1-[7-(4-methoxyphenyl)hept-6-yn-1-yl]piperidine-3,4,5-triol] | 999 nM | 146 nM
Nc1ccc(NCCc2ccccc2CCN2C[C@H](O)[C@@H](O)[C@H](O)[C@H]2CO)c([N+](=O)[O-])c1Cl [Compound 1239, (2R,3R,4R,5S)-1-[2-(2-{2-[(4-amino-3-chloro-2-nitrophenyl)amino]ethyl}phenyl)ethyl]-2-(hydroxymethyl)piperidine-3,4,5-triol] | 1440 nM | < 1 nM
[N-]=[N+]=Nc1ccc(NCCN2CCN(CCN3C[C@H](O)[C@@H](O)[C@H](O)[C@H]3CO)CC2)c([N+](=O)[O-])c1 [Compound 1273, (2R,3R,4R,5S)-1-[2-(4-{2-[(4-azido-2-nitrophenyl)amino]ethyl}piperazin-1-yl)ethyl]-2-(hydroxymethyl)piperidine-3,4,5-triol] | 13000 nM | 646 nM
OC[C@@H]1[C@@H](O)[C@H](O)[C@@H](O)CN1Cc1cnc(CNc2cc(-c3ncccn3)cc(C3CC3)c2)cn1 [Compound 1329, (2R,3R,4R,5S)-1-{[5-({[3-cyclopropyl-5-(pyrimidin-2-yl)phenyl]amino}methyl)pyrazin-2-yl]methyl}-2-(hydroxymethyl)piperidine-3,4,5-triol] | 1870 nM | 548 nM
O=[N+]([O-])c1cc(Br)ccc1NCc1ccc(CN2C[C@H](O)[C@@H](O)[C@H](O)[C@H]2CO)cc1 [Compound 1030, (2R,3R,4R,5S)-1-[(4-{[(4-bromo-2-nitrophenyl)amino]methyl}phenyl)methyl]-2-(hydroxymethyl)piperidine-3,4,5-triol] | < 1 nM | < 1 nM
[N-]=[N+]=Nc1ccc(NCCCCCCN2C[C@H](O)[C@@H](O)[C@H](O)[C@H]2CO)c(C(=O)O)c1 [Compound 1297, 5-azido-2-({6-[(2R,3R,4R,5S)-3,4,5-trihydroxy-2-(hydroxymethyl)piperidin-1-yl]hexyl}amino)benzoic acid] | 1300 nM | 169 nM
Cc1cc(NCc2ccc(CN3C[C@H](O)[C@@H](O)[C@H](O)[C@H]3CO)cc2)cc(-n2ccnn2)c1 [Compound 1323, (2R,3R,4R,5S)-2-(hydroxymethyl)-1-{[4-({[3-methyl-5-(1H-1,2,3-triazol-1-yl)phenyl]amino}methyl)phenyl]methyl}piperidine-3,4,5-triol] | 11 nM | 11 nM
COc1cc(-c2ncccn2)ccc1NCCCCCCN1C[C@H](O)[C@@H](O)[C@H](O)[C@H]1CO [Compound 1231, (2R,3R,4R,5S)-2-(hydroxymethyl)-1-(6-{[2-methoxy-4-(pyrimidin-2-yl)phenyl]amino}hexyl)piperidine-3,4,5-triol] | 187 nM | 30 nM
Cc1cc(NCc2cnc(CN3C[C@H](O)[C@@H](O)[C@H](O)[C@H]3CO)cn2)cc(N2CCOCC2)c1 [Compound 1332, (2R,3R,4R,5S)-2-(hydroxymethyl)-1-{[5-({[3-methyl-5-(morpholin-4-yl)phenyl]amino}methyl)pyrazin-2-yl]methyl}piperidine-3,4,5-triol] | 2820 nM | 573 nM
[N-]=[N+]=Nc1ccc(NCCOC(=O)NCCN2C[C@H](O)[C@@H](O)[C@H](O)[C@H]2CO)c([N+](=O)[O-])c1 [Compound 1268, 2-[(4-azido-2-nitrophenyl)amino]ethyl N-{2-[(2R,3R,4R,5S)-3,4,5-trihydroxy-2-(hydroxymethyl)piperidin-1-yl]ethyl}carbamate] | 1990 nM | 68 nM
